Reference: patent publication EP4001279A1, “NOVEL SPIROPYRROLIDINE DERIVED ANTIVIRAL AGENTS” (Enanta Pharmaceuticals, Inc., priority 2020, dated 2022)

Tested on: 229E human corona virus (hCoV)
Test: 229E live virus assay (CPE, ATPlite readout in MRC-5 cells)
Type: cell-based, hCoV-229E
Conditions: Human coronavirus 229E, MRC5, hCoV-229E live virus, MOI 0.05, ATPlite readout, run in duplicate

| SMILES | EC50 [µM] |
| --- | --- |
| CC(C)C[C@@H](C(=O)N1C[C@]2(C[C@H]1C#N)C(=O)Nc1ccccc12)N(C)C(=O)c1cc2ccccc2cn1 [Example 212] | < 0.1 |
| CC(C)C[C@@H](C(=O)N1C[C@]2(C[C@H]1C#N)C(=O)Nc1ccccc12)N(C)C(=O)c1cnc2ccccc2c1 [Example 213] | < 0.1 |
| CC(C)C[C@@H](C(=O)N1C[C@]2(C[C@H]1C#N)C(=O)Nc1ccccc12)N(C)C(=O)c1cccc2ncccc12 [Example 214] | < 0.1 |
| CC(C)C[C@@H](C(=O)N1C[C@]2(C[C@H]1C#N)C(=O)Nc1ccccc12)N(C)C(=O)c1cccc2cnccc12 [Example 215] | < 0.1 |
| CC(C)C[C@@H](C(=O)N1C[C@]2(C[C@H]1C#N)C(=O)Nc1ccccc12)N(C)C(=O)c1ccc2cnccc2c1 [Example 216] | < 0.1 |
| CC(C)C[C@@H](C(=O)N1C[C@]2(C[C@H]1C#N)C(=O)Nc1ccccc12)N(C)C(=O)c1ccc2ccncc2c1 [Example 217] | < 0.1 |
| CC(C)C[C@@H](C(=O)N1C[C@]2(C[C@H]1C#N)C(=O)Nc1ccccc12)N(C)C(=O)c1ccc2cccnc2c1 [Example 218] | < 0.1 |
| CC(C)C[C@@H](C(=O)N1C[C@]2(C[C@H]1C#N)C(=O)Nc1ccccc12)N(C)C(=O)c1ccc2ccccc2c1 [Example 219] | < 0.1 |
| CC(C)C[C@@H](C(=O)N1C[C@]2(C[C@H]1C#N)C(=O)Nc1ccccc12)N(C)C(=O)c1cccc2ccccc12 [Example 220] | < 0.1 |
| CC(C)C[C@@H](C(=O)N1C[C@]2(C[C@H]1C#N)C(=O)Nc1ccccc12)N(C)C(=O)c1ccc(F)c2ccccc12 [Example 221] | < 0.1 |
| CC(C)C[C@@H](C(=O)N1C[C@]2(C[C@H]1C#N)C(=O)Nc1ccccc12)N(C)C(=O)c1ccc2cc(F)ccc2c1 [Example 222] | < 0.1 |
| CC(C)C[C@@H](C(=O)N1C[C@]2(C[C@H]1C#N)C(=O)Nc1ccccc12)N(C)C(=O)c1ccc2cn[nH]c2c1 [Example 223] | < 0.1 |
| CC(C)C[C@@H](C(=O)N1C[C@]2(C[C@H]1C#N)C(=O)Nc1ccccc12)N(C)C(=O)c1ccc2cnn(C)c2c1 [Example 224] | < 0.1 |
| CC(C)C[C@@H](C(=O)N1C[C@]2(C[C@H]1C#N)C(=O)Nc1ccccc12)N(C)C(=O)c1ccc2nc(N)sc2c1 [Example 225] | 0.1 to 1 |
| CC(C)C[C@@H](C(=O)N1C[C@]2(C[C@H]1C#N)C(=O)Nc1ccccc12)N(C)C(=O)Cc1ccccc1 [Example 226] | < 0.1 |
| CC(C)C[C@@H](C(=O)N1C[C@]2(C[C@H]1C#N)C(=O)Nc1ccccc12)N(C)C(=O)CCc1ccccc1 [Example 227] | < 0.1 |
| CC(C)C[C@@H](C(=O)N1C[C@]2(C[C@H]1C#N)C(=O)Nc1ccccc12)N(C)C(=O)/C=C/c1ccccc1 [Example 228] | < 0.1 |
| CC(C)C[C@@H](C(=O)N1C[C@]2(C[C@H]1C#N)C(=O)Nc1ccccc12)N(C)C(=O)COc1ccccc1 [Example 229] | < 0.1 |
| CC(C)C[C@@H](C(=O)N1C[C@]2(C[C@H]1C#N)C(=O)Nc1ccccc12)N(C)C(=O)c1ccc2c(Br)cccc2n1 [Example 231] | < 0.1 |
| CC(C)C[C@@H](C(=O)N1C[C@]2(C[C@H]1C#N)C(=O)Nc1ccccc12)N(C)C(=O)c1ccc(-c2ccccc2)cc1 [Example 232] | < 0.1 |

| SMILES | EC50 [µM] |
| --- | --- |
| Cc1ccc2cc(C(=O)N(C)[C@@H](CC(C)C)C(=O)N3C[C@]4(C[C@H]3C#N)C(=O)Nc3ccccc34)ccc2n1 [Example 234] | < 0.1 |
| CC(C)C[C@@H](C(=O)N1C[C@]2(C[C@H]1C#N)C(=O)Nc1ccccc12)N(C)C(=O)c1ccc2ncc(F)cc2c1 [Example 235] | < 0.1 |
| CC(C)C[C@@H](C(=O)N1C[C@]2(C[C@H]1C#N)C(=O)Nc1ccccc12)N(C)C(=O)c1cc2ccc(Br)cc2cn1 [Example 236] | < 0.1 |
| CC(C)C[C@@H](C(=O)N1C[C@]2(C[C@H]1C#N)C(=O)Nc1ccccc12)N(C)C(=O)c1ccc2ncc(C(F)(F)F)cc2c1 [Example 237] | < 0.1 |
| Cc1cc2cc(C(=O)N(C)[C@@H](CC(C)C)C(=O)N3C[C@]4(C[C@H]3C#N)C(=O)Nc3ccccc34)cc(OC(F)(F)F)c2nc1C [Example 238] | < 0.1 |
| CC(C)C[C@@H](C(=O)N1C[C@]2(C[C@H]1C#N)C(=O)Nc1ccccc12)N(C)C(=O)c1cc(Cl)c2ncc(C3CC3)cc2c1 [Example 239] | < 0.1 |
| CC(C)C[C@@H](C(=O)N1C[C@]2(C[C@H]1C#N)C(=O)Nc1ccccc12)N(C)C(=O)c1cc(Cl)c2ncc(C(F)(F)F)cc2c1 [Example 240] | < 0.1 |
| CC(C)C[C@@H](C(=O)N1C[C@]2(C[C@H]1C#N)C(=O)Nc1ccccc12)N(C)C(=O)c1ccc2ccsc2c1 [Example 246] | < 0.1 |
| CC(C)C[C@@H](C(=O)N1C[C@]2(C[C@H]1C#N)C(=O)Nc1ccccc12)N(C)C(=O)c1cc2ccccn2n1 [Example 247] | < 0.1 |
| CC(C)C[C@@H](C(=O)N1C[C@]2(C[C@H]1C#N)C(=O)Nc1ccccc12)N(C)C(=O)C#Cc1ccccc1 [Example 248] | < 0.1 |
| COc1ccc2[nH]c(C(=O)N(C)[C@@H](CC(C)C)C(=O)N3C[C@]4(C[C@H]3C#N)C(=O)Nc3ccccc34)nc2c1 [Example 249] | < 0.1 |
| CC(C)C[C@@H](C(=O)N1C[C@]2(C[C@H]1C#N)C(=O)Nc1ccccc12)N(C)C(=O)c1nc2cc(F)ccc2[nH]1 [Example 250] | < 0.1 |
| CC(C)C[C@@H](C(=O)N1C[C@]2(C[C@H]1C#N)C(=O)Nc1ccccc12)N(C)C(=O)c1nc2cc(Cl)c(Cl)cc2[nH]1 [Example 251] | < 0.1 |
| Cc1cccc2[nH]c(C(=O)N(C)[C@@H](CC(C)C)C(=O)N3C[C@]4(C[C@H]3C#N)C(=O)Nc3ccccc34)nc12 [Example 252] | < 0.1 |
| CC(C)C[C@@H](C(=O)N1C[C@]2(C[C@H]1C#N)C(=O)Nc1ccccc12)N(C)C(=O)c1cc2cccnc2cc1OC(F)F [Example 253] | < 0.1 |
| CC(C)C[C@@H](C(=O)N1C[C@]2(C[C@H]1C#N)C(=O)Nc1ccccc12)N(C)C(=O)c1cc2ccc(=O)[nH]c2cc1OC1CC1 [Example 254] | < 0.1 |
| CC(C)C[C@@H](C(=O)N1C[C@]2(C[C@H]1C#N)C(=O)Nc1ccccc12)N(C)C(=O)c1cc(Cl)c2[nH]c(C3CC3)nc2c1 [Example 256] | < 0.1 |
| CC(C)C[C@@H](C(=O)N1C[C@]2(C[C@H]1C#N)C(=O)Nc1ccccc12)N(C)C(=O)c1ccc2nc(-c3ccccc3)ccc2c1 [Example 257] | < 0.1 |
| COc1cc(C(=O)N(C)[C@@H](CC(C)C)C(=O)N2C[C@]3(C[C@H]2C#N)C(=O)Nc2ccccc23)nc2ccccc12 [Example 258] | < 0.1 |
| Cc1cc(C)c2ccc(C(=O)N(C)[C@@H](CC(C)C)C(=O)N3C[C@]4(C[C@H]3C#N)C(=O)Nc3ccccc34)nc2c1O [Example 259] | < 0.1 |

| SMILES | EC50 [µM] |
| --- | --- |
| CC(C)C[C@@H](C(=O)N1C[C@]2(C[C@H]1C#N)C(=O)Nc1ccccc12)N(C)C(=O)c1cnc2ccccc2c1O [Example 260] | < 0.1 |
| CC(C)C[C@@H](C(=O)N1C[C@]2(C[C@H]1C#N)C(=O)Nc1ccccc12)N(C)C(=O)c1ccccc1-c1ccccc1 [Example 261] | 0.1 to 1 |
| CC(C)C[C@@H](C(=O)N1C[C@]2(C[C@H]1C#N)C(=O)Nc1ccccc12)N(C)C(=O)c1cc(-c2ccccc2)ccc1Cl [Example 262] | 0.1 to 1 |
| CC(C)C[C@@H](C(=O)N1C[C@]2(C[C@H]1C#N)C(=O)Nc1ccccc12)N(C)C(=O)c1cccc(-c2ccc(C(F)(F)F)cc2)c1 [Example 263] | < 0.1 |
| CC(C)C[C@@H](C(=O)N1C[C@]2(C[C@H]1C#N)C(=O)Nc1ccccc12)N(C)C(=O)c1cccc(-c2ccccc2F)c1 [Example 264] | < 0.1 |
| CC(C)C[C@@H](C(=O)N1C[C@]2(C[C@H]1C#N)C(=O)Nc1ccccc12)N(C)C(=O)c1cccc(-c2ccc(C#N)cc2)c1 [Example 265] | 0.1 to 1 |
| CC(C)C[C@@H](C(=O)N1C[C@]2(C[C@H]1C#N)C(=O)Nc1ccccc12)N(C)C(=O)c1cccc(-c2cccc(Cl)c2)c1 [Example 266] | < 0.1 |
| CC(C)C[C@@H](C(=O)N1C[C@]2(C[C@H]1C#N)C(=O)Nc1ccccc12)N(C)C(=O)c1cn(-c2ccccn2)nn1 [Example 267] | < 0.1 |
| CC(C)C[C@@H](C(=O)N1C[C@]2(C[C@H]1C#N)C(=O)Nc1ccccc12)N(C)C(=O)c1cnc2c(C(F)(F)F)cccc2c1 [Example 268] | < 0.1 |
| CC(C)C[C@@H](C(=O)N1C[C@]2(C[C@H]1C#N)C(=O)Nc1ccccc12)N(C)C(=O)c1nc2c(F)cc(F)cc2[nH]1 [Example 269] | < 0.1 |
| CC(C)C[C@@H](C(=O)N1C[C@]2(C[C@H]1C#N)C(=O)Nc1ccccc12)N(C)C(=O)c1nc2c(F)cc(F)c(F)c2[nH]1 [Example 270] | < 0.1 |
| CC(C)C[C@@H](C(=O)N1C[C@]2(C[C@H]1C#N)C(=O)Nc1ccccc12)N(C)C(=O)c1ccc2c(Cl)ccnc2c1 [Example 271] | < 0.1 |
| CC(C)C[C@@H](C(=O)N1C[C@]2(C[C@H]1C#N)C(=O)Nc1ccccc12)N(C)C(=O)c1ccc(F)c(-c2ccccc2)c1 [Example 272] | < 0.1 |
| CC(C)C[C@@H](C(=O)N1C[C@]2(C[C@H]1C#N)C(=O)Nc1ccccc12)N(C)C(=O)c1nc2c(F)c(F)c(F)cc2[nH]1 [Example 273] | < 0.1 |
| CC(C)C[C@@H](C(=O)N1C[C@]2(C[C@H]1C#N)C(=O)Nc1ccccc12)N(C)C(=O)c1ccc2nccc(Br)c2c1 [Example 274] | < 0.1 |
| CC(C)C[C@@H](C(=O)N1C[C@]2(C[C@H]1C#N)C(=O)Nc1ccccc12)N(C)C(=O)c1cc2cccnc2cc1F [Example 275] | < 0.1 |
| CC(C)C[C@@H](C(=O)N1C[C@]2(C[C@H]1C#N)C(=O)Nc1ccccc12)N(C)C(=O)c1ccc2c(=O)[nH]ccc2c1 [Example 276] | < 0.1 |
| CC(C)C[C@@H](C(=O)N1C[C@]2(C[C@H]1C#N)C(=O)Nc1ccccc12)N(C)C(=O)c1ccc(-c2ccccc2)cc1 [Example 277] | < 0.1 |
| CC(C)C[C@@H](C(=O)N1C[C@]2(C[C@H]1C#N)C(=O)Nc1ccccc12)N(C)C(=O)c1cccc(-c2ccccc2C#N)c1 [Example 278] | < 0.1 |
| CC(C)C[C@@H](C(=O)N1C[C@]2(C[C@H]1C#N)C(=O)Nc1ccccc12)N(C)C(=O)c1cccc(-c2cccc(C#N)c2)c1 [Example 279] | < 0.1 |
